Assay results from US6352982B1, “4,1-benzoxazepines, their analogues, and their use as somatostatin agonists” (Takeda Chemical Industries, Ltd., priority 1997, dated 2002).
Where a name gives a salt, the structure may show the parent alone.

Legend:
[1] = biological target: T1, human somatostatin receptor SSTR5 (Homo sapiens, UniProt P35346); assay: Binding inhibition of 125I-somatostatin, CHO cell membrane fraction; conditions: 125I-somatostatin binding, 25° C. for 60 minutes, read-out: Activities for human somatostatin receptor (IC50 value) SSTR5
T1 construct: expressed in transfected cells; host or cells: CHO (dhfr-) cells, strain SSTR5-3-2-4 (also printed SSTR5-32-4)
Procedure: (§1) A human somatostatin receptor expression CHO cell strain, SSTR1-8-3, SSTR2-HS5-9, SSTR3-15-19, SSTR4-1-2 or SSTR5-32-4 (10^9), was suspended in a phosphate buffered saline containing 5mM of EDTA (PBS-EDTA). The suspension was centrifuged. To the cell pellet was added 10 ml of a homogenation buffer solution for cells (10 mM NaHCO3, 5 mM EDTA, pH=7.5). The mixture was homogenized by a Politron homogenizer and centrifuged at 400×g for 15 minutes. The supernatant obtained was farther centrifuged at 100,000×g for an hour to obtain a precipitate of the membrane fraction. The precipitate was suspended in 2 ml of a buffer solution for assay ([…], 0.1% of BSA (bovine serum albumin) and […], 1 μ/ml of pepstatin, 20 μg/ml of leupeptin, 10 μg/ml of phosphoramide, pH=7.5). The suspension was centrifuged at […] for an hour. The membrane fraction recovered as precipitate was suspended again in 20 ml of buffer solution for assay. The suspension was placed in tubes and stored at −80° C. The suspension was thawed when used, and used at every use.
(§2) The membrane fraction prepared in Example 1 was diluted with a buffer solution for assay to adjust the concentration to 3 μg/ml. The diluate was placed in tubes each in quantity of 173 μl. To this were simultaneously added 2 μl of a solution of a compound in DMSO and 25μl of a 200pM radioisotope-labeled somatostatin (^125I-somatostatin: Amersham) solution. For measurement of the maximum binding, a reaction mixture added with 2 μl of DMSO and 25μl of a 200pM ^125I-somatostatin solution was prepared. For measurement of non-specific binding, a reaction mixture added with 2 μl of a 100 μM somatostatin solution diluted in DMSO and 25 μl of a 200pM ^125I-somatostatin solution was prepared at the same time. The mixtures were allowed to react at 25° C. for 60 minutes. Then, the reaction mixture was filtered by aspiration using a GF/B glass fiber filter paper (Whatman) treated with polyethylenimine. After filtration, the radioactivity of 125I-somatostatin remaining on the filter paper was measured by a γ-counter.
(§3) The binding rate (%) of each compound was calculated by the formula: […]
(§4) (where PBM: Percent maximum Binding, B: radioactivity when a compound was added, Bo: maximum binding radioactivity, NSB: non-specific binding radioactivity). The binding rates were calculated by changing the concentrations of the compound to obtain the 50% inhibiting concentration of the compound (IC50 value) by the Hil l plots.
(§5) The activities (IC50 value, μM) of the compounds for each human somatostatin receptor obtained by the above method are shown in the following Table 5.

[2] = biological target: T2, human somatostatin receptor SSTR3 (Homo sapiens, UniProt P32745); assay: as above; conditions: 125I-somatostatin binding, 25° C. for 60 minutes, read-out: Activities for human somatostatin receptor (IC50 value) SSTR3
T2 construct: expressed in transfected cells; host or cells: CHO (dhfr-) cells, strain SSTR3-15-19
Procedure: as §1, §2, §3, §4, §5

[3] = biological target: T3, human somatostatin receptor SSTR4 (Homo sapiens, UniProt P31391); assay: as above; conditions: 125I-somatostatin binding, 25° C. for 60 minutes, read-out: Activities for human somatostatin receptor (IC50 value) SSTR4
T3 construct: expressed in transfected cells; host or cells: CHO (dhfr-) cells, strain SSTR4-1-2
Procedure: as §1, §2, §3, §4, §5

[4] = biological target: T4, human somatostatin receptor SSTR2 (Homo sapiens, UniProt P30874); assay: as above; conditions: 125I-somatostatin binding, 25° C. for 60 minutes, read-out: Activities for human somatostatin receptor (IC50 value) SSTR2
T4 construct: expressed in transfected cells; host or cells: CHO (dhfr-) cells, strain SSTR2-HS5-9
Procedure: as §1, §2, §3, §4, §5

SD rats = assay: Insulin secretion inhibition study using SD rats; format: in vivo, rat
Procedure: In order to study the inhibitory effect of the compound of Example 5 on the insulin secretion after the stimulation by glucose, blood was withdrawn at various time intervals after the simultaneous intravenous administration of the compound of Example 5 and glucose. Serum insulin concentrations were determined by RIA.
Male rats of SD strain (8 weeks of age, n=3) were weighed and anesthetized by the intraperitoneal administration of 50 mg/kg of pentobarbital. As blood clotting inhibitor 30 mg of EDTA was dissolved in 300 μl of 50,000 units/ml Trasylol (Bayer) solution, and the solution was placed into Eppendorf blood collecting tubes each in quantity of […]. After fixing the rat on the rat fixing apparatus, the unilateral jugular vein was exposed and 100 μl of the blood was withdrawn from the vein by using a 25G injection needle. The test solution for the control group [without glucose] was saline containing 5% propylene glycol and 30% hydroxypropyl-β-cyclodextrin. The test solution for the control group [with glucose] was saline containing 5% propylene glycol, 30% hydroxypropyl-β-cyclodextrin, and 300 mg/kg/ml of glucose. […]
Plasma insulin concentrations were determined by RIA using the rat insulin [125I] assay system (Amersham). […] The radioactivity of the sediment was measured by gamma counter. […]

[5] = biological target: T5, human somatostatin receptor SSTR1 (Homo sapiens, UniProt P30872); assay: Binding inhibition of 125I-somatostatin, CHO cell membrane fraction; conditions: 125I-somatostatin binding, 25° C. for 60 minutes, read-out: Activities for human somatostatin receptor (IC50 value) SSTR1
T5 construct: expressed in transfected cells; host or cells: CHO (dhfr-) cells, strain SSTR1-8-3
Procedure: as §1, §2, §3, §4, §5

T2 sequence (P32745 whole entry): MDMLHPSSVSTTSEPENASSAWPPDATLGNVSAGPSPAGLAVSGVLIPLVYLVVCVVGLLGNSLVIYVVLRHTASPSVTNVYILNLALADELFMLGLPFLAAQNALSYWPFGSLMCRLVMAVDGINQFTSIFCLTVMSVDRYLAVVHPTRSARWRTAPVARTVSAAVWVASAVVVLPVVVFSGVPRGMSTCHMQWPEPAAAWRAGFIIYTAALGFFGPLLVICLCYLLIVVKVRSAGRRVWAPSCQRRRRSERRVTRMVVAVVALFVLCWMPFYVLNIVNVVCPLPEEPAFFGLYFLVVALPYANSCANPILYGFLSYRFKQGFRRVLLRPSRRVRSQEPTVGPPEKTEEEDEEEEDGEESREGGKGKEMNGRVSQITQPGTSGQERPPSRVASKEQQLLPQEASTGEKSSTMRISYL
T3 sequence (P31391 whole entry): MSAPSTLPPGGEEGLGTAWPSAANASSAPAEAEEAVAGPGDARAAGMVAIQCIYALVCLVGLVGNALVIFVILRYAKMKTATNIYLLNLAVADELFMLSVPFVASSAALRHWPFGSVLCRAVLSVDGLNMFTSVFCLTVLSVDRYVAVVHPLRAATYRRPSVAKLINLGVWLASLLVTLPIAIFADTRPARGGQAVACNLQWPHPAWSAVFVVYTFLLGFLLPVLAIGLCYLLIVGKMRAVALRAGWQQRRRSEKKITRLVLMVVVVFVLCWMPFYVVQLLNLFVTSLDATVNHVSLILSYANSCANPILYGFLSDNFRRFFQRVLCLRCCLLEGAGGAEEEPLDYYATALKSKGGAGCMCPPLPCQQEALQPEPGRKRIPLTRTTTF
T1 sequence (P35346 whole entry): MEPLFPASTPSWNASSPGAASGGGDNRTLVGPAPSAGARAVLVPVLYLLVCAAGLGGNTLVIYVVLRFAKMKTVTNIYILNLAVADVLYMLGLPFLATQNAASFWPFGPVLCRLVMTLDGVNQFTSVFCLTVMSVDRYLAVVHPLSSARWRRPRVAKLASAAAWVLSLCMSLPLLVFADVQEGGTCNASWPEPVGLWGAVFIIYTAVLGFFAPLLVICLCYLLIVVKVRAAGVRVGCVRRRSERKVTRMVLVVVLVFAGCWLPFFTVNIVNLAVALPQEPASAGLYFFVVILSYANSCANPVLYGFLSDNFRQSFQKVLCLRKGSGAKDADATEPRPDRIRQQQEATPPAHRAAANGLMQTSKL
T4 sequence (P30874 whole entry): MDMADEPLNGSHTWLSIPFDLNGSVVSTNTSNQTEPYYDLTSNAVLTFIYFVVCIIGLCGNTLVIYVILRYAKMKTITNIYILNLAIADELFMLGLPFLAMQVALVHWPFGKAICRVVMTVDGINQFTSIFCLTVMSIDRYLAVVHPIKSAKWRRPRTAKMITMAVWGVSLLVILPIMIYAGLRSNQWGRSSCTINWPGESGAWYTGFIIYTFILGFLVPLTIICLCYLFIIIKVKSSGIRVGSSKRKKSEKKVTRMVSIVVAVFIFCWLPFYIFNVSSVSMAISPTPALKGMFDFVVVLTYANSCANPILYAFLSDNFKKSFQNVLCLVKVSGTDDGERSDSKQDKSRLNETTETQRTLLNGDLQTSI
T5 sequence (P30872 whole entry): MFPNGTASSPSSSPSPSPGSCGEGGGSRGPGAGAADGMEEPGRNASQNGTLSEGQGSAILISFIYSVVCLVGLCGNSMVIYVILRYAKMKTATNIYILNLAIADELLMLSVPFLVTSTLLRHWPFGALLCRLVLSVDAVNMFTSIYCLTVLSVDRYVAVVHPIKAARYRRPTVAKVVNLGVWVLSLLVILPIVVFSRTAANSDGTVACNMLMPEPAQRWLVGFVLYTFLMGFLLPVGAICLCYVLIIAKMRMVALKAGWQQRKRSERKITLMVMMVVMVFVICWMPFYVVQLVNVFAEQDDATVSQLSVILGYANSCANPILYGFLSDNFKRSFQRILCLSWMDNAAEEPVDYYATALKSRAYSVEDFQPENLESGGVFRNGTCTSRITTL

NCc1cccc(C2OC(CC(=O)NCc3ccccc3F)C(=O)N(Cc3ccc(-c4ccccc4)cc3)c3ccc(Cl)cc32)c1 (stereo not drawn) [Example 5, 3,5-Trans-N-(2-fluorobenzyl)-5-(3-aminomethylphenyl)-1-(4-biphenylmethyl)-7-chloro-2-oxo-1,2,3,5-tetrahydro-4,1-benzoxazepine-3-acetamide•monohydrochloride]
IC50 [1]: 0.0007 µM
IC50 [2]: 0.003 µM
IC50 [3]: 0.3 µM
IC50 [4]: 0.1 µM
Elevation of the plasma insulin concentration after glucose (SD rats; intravenous 0.003, 0.03, 0.3 or 3 mg/kg with glucose, male SD rats): dose-dependently inhibited
Dosage which inhibited the elevation of insulin concentration by 50% (SD rats; simultaneous intravenous administration with glucose, anesthetized male SD rats): about 0.03 mg/kg

NCc1cccc(C2OC(CC(=O)NCc3ccccc3F)C(=O)N(Cc3ccc(O)cc3)c3ccc(Cl)cc32)c1 (stereo not drawn) [Example 102, 3,5-Trans-N-(2-fluorobenzyl)-5-(3-aminomethylphenyl)-7-chloro-1-(4-hydroxybenzyl)-2-oxo-1,2,3,5-tetrahydro-4,1-benzoxazepine-3-acetamide•monohydrochloride]
IC50 [1]: 0.0001 µM
IC50 [2]: 0.08 µM
IC50 [3]: 0.3 µM
IC50 [5]: > 1 µM
IC50 [4]: 0.06 µM
